These results are taken from patent publication US12629355B2, “Drug inhibitor against migration and invasion of cancer cells and methods of treating against metastasis of cancer cells” (HOWARD UNIVERSITY, priority 2019, dated 2026).

What all share (type): cell-based
Assay [1] deals with pY397-FAK. The assay is described as follows: pY397-FAK expression, immunofluorescence (FIG. 15). The note with it: U251 cells, 96 h, 5 ng/ml TGF-beta. The source says: As to FIGS. 14 and 15, in order to evaluate the effect of a representative compound (SD 29-14) as a drug for inducing functional inactivation of RACK1 on the FAK phosphorylation, the drug was used in testing with breast cancer cells (MCF7, FIG. 14) and with glioblastoma cancer cells (U251, FIG. 15). In this immunofluorescence experiment, the pY397-FAK expressing cells were stained with FITC tagged secondary antibody (green) and RACK1 was stained with TRITC tagged secondary antibody (red). Here 5 ng/ml TGFbeta was used to induce cell migration. […] As discussed above, without the pY397-FAK present, the connection between the ECM and cell interiors will be disrupted which will inhibit the cell's potential to migrate by initiating the cell's adhesion to the ECM.
As to FIGS. 14 and 15, and the methods, the immunofluorescence experiments are essentially same as described with reference to FIG. 9 with a slight modification in the duration of the drug treatment. The cancer cells (MCF7 or U251) were incubated with a drug (SD 29-14) or with DMSO (left panel) for 96 h in the presence of 5 ng/ml TGF-beta. After indicated incubation period, the cells were fixed and stained with antibody as described for FIG. 9 methods.

Assay [2] deals with U251 cells. The assay is described as follows: Migration through Matrigel, cell shape differentiation (FIG. 16-19). The procedure: Within 24 h of the placement of the cells on the matrigel, the cells were able to migrate through the matrigel and were captured on the glass coverslip beneath the matrigel layer.
The cells are labeled with an antibody (pY397-FAK) and detected with a rabbit-TRITC secondary antibody. The antibody staining allowed to visualize the cells clearly but the autofluorescence of the Matrigel made it hard to pinpoint the precise localization of the pY397-FAK protein.
As to FIG. 19, and related methods, freshly harvested 10^5 cells in MEM no serum media+/−drugs (500 μl) placed on coverslip covered with 200 μl of 1:12 matrigel diluted with MEM serum free media in a 24 well plate. After 24 h, the matrigel was carefully removed by tilting wells and drawing from the tilted side of the wells and washing thoroughly with PBS to remove the matrigel completely (all crumbs removed as their auto fluorescence makes background during imaging) and then were fixed 10 minutes with 4% paraformaldehyde. Washed 2× with PBS; use 5% Urea to treat the cells at 95 C for 10 minutes, wash 2×PBS; permeabilize with 0.5% saponin in PBS; block cells with 3% BSA in PBST for 30 min; Overnight Primary antibody (ThermoFisher Cat #70025-pFAK397 rabbit at 1:250) in 1% BSA in PBST at 4 C, secondary (Rabbit-TRITC) also 1% BSA in PBST for one hour (1:1000).

Assay [3] has as its system FAK. The assay can be described thus: Localization of FAK, immunofluorescence (FIG. 13). To be noted: versus DMSO+TGF (5 ng/ml) control. The procedure:
FIG. 13 presents in photomicrographs a comparison between an illustrative cancer in which the treatment involved using DMSO+TGF (5 ng/ml) as a control and the illustrative cancer cell in which the in vitro treatment involved using a compound according to a formulae (1), (2) or (3) herein+TGF (5 ng/ml). The block of four photomicrographs on the left is for the control. […] Inability to co-localize would inhibit the downstream modifications of FAK reported as needed for migration.
As to FIGS. 12 and 13, cells were grown to almost 80% confluency and then serum starved for 24 hours. Then treated with the representative compound SD 29-14 for additional 24 h. No TGFbeta1 was used in this assay. After 24 h, cells were prepared for the immunofluorescence imaging essentially with the same procedure as described for FIG. 9. The antibody for the FAK was purchased from GeneTex (Irvine, CA). The secondary was rabbit TRITC. The primary RACK1 antibody coupled with a FITC reporter was purchased from Santa Cruz Biotechnology (Dallas, TX).

Assay [4] deals with N-cadherin. The assay can be described thus: Protein expression of EMT marker N-cadherin, western blot (FIG. 8). The note with it: U251 cells, serum starved 24 h, with or without TGFb, 6 days. The text has this: The inhibition of EMT marker by a representative compound (SD 29-14) in comparison to other compounds (SD 29, and SD 29-12). A large family of cadherin molecules are expressed in a cancer cell-type specific manner and among them, N-cadherin is reported to be expressed in mesenchymal cells (e.g., Li and Feng, 2011; Alizadeh et al., 2014). […] Up-regulation of N-cadherin reduces cancer cell adhesion ability to epithelial cells, increases adhesion to stromal cells, and leads to subsequent invasion of tumor cells into stroma (Guan 2015). N-cadherin promotes cell migration and metastasis regardless of the expression and function of E-cadherin (Hazan et al., 2000). […] The N-cadherin expression correlates with RACK1 expression (lower panel). The coomassie stained gel is used as the loading control.
As to FIG. 8, U251 cells starved (no serum) for 24 h and then treated with the indicated compounds with or without the TGFb and again replenished with the compounds and TGFb after 3 days. After allowing to grow for 6 days, the cells were washed three times in PBS. […] After overnight incubation, the membrane was washed 3× in PBST and then incubated with a horseradish peroxidase-coupled secondary antibody for an hour at room temperature and the bands were detected with enhanced chemiluminescence (Pierce, Rockford, IL, USA), according to standard methods.
(In general: Immunoblotting shows a protein as a band on a membrane.)

Take `Nn1c(S)nnc1-c1cc(Cl)cc(Cl)c1` [SD 29-14]: in assay [1], the “expression of pY397-FAK at the cell protrusions” value was “almost completely inhibited”. Further, the “filipodia, invadopodia, lamellipodia structures and cell-cell adhesion during invasion through matrigel” value is “those structures where inhibited and the cells mostly maintained their cell-cell adhesion” in assay [2] (10 μM, 24 h (FIG. 17)); “those structures where inhibited and the cells mostly maintained their cell-cell adhesion” in assay [2] (100 μM, 24 h (FIG. 18)). In addition, the “localization of FAK” value in assay [3] is given as “blocks localization of FAK”. Also, the N-cadherin expression entry in assay [4] is “down-regulated N-cadherin expression”.
